Here are results for seven compounds from PMC3961306, “Comparison of the Cancer Gene Targeting and Biochemical Selectivities of All Targeted Kinase Inhibitors Approved for Clinical Use” (PLoS ONE, 2014).

SMILES strings stand for the structures.

Holding throughout (assay): Kinase profiling in a biochemical assay panel (mobility shift assays and ELISA), %-inhibition at 1 μM; selectivity entropy
In assay [1] the target is panel of more than 300 wild-type and mutant kinases (313 kinase panel) (Homo sapiens, UniProt Q07912). The settings on record: kinase ACK; 1 μM compound.
For assay [2], the target named is panel of more than 300 wild-type and mutant kinases (313 kinase panel) (Homo sapiens, UniProt P49760). The settings on record: kinase CLK2; 1 μM compound.
For assay [3], the target named is panel of more than 300 wild-type and mutant kinases (313 kinase panel) (Homo sapiens, UniProt Q86Z02). The settings on record: kinase HIPK1; compound at 1 μM.
For assay [4], the target named is T1, panel of more than 300 wild-type and mutant kinases (313 kinase panel) (Homo sapiens, UniProt Q16566).
T1 sequence (Q16566 1-473): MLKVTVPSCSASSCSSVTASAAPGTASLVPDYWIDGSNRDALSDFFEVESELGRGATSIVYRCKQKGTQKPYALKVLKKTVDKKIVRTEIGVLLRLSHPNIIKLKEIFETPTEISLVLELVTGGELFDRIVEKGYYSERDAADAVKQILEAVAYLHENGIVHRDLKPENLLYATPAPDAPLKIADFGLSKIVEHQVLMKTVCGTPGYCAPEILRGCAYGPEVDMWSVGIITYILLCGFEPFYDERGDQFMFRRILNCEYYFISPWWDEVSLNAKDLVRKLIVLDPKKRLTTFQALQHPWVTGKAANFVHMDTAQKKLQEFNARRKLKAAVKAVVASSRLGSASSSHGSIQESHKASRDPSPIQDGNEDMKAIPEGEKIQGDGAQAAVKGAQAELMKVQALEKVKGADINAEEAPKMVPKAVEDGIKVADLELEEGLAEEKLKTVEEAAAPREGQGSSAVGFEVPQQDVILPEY
The settings on record: kinase CaMK4; 1 μM compound.

Assay [5] concerns the target panel of more than 300 wild-type and mutant kinases (313 kinase panel) (Homo sapiens, UniProt P22455, N535K). The settings on record: kinase FGFR4(N535K); compound at 1 μM.
For assay [6], the target named is panel of more than 300 wild-type and mutant kinases (313 kinase panel) (Homo sapiens, UniProt Q9Y3S1). The settings on record: kinase WNK2; compound at 1 μM.
The target in assay [7] is panel of more than 300 wild-type and mutant kinases (313 kinase panel) (Homo sapiens, UniProt P07333).
Assay [8] concerns the target T2, panel of more than 300 wild-type and mutant kinases (313 kinase panel) (Homo sapiens, UniProt Q9BZL6).
T2 sequence (Q9BZL6 1-878): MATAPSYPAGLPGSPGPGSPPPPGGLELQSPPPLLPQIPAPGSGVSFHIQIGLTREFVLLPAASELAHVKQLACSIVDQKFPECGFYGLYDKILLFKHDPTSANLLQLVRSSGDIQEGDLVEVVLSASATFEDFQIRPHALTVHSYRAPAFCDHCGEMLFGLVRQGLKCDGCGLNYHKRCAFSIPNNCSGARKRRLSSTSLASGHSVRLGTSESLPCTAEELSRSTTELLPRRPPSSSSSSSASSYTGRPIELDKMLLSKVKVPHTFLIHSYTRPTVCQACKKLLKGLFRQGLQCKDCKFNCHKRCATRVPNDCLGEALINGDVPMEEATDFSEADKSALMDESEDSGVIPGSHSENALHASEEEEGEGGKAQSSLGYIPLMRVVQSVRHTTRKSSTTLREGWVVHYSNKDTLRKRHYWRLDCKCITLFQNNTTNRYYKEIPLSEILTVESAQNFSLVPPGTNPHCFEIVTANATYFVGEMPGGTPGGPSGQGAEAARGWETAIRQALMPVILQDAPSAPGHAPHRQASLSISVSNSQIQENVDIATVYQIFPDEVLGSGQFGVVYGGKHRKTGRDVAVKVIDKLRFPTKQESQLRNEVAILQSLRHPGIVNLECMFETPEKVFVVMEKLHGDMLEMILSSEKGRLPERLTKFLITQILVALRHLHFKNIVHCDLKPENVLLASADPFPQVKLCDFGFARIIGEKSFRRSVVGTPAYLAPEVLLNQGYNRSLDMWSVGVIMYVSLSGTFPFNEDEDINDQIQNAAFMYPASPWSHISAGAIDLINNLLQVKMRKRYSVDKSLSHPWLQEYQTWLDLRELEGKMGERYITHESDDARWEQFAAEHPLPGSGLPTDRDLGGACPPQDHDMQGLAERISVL
The settings on record: kinase PKD2; 1 μM.

Assay [9] concerns the target panel of more than 300 wild-type and mutant kinases (313 kinase panel) (Homo sapiens, UniProt P16591). The settings on record: kinase FER; compound at 1 μM.
Assay [10] has as its target panel of more than 300 wild-type and mutant kinases (313 kinase panel) (Homo sapiens, UniProt Q13554).
Assay [11] deals with panel of more than 300 wild-type and mutant kinases (313 kinase panel) (Homo sapiens, UniProt P42685). The settings on record: kinase FRK; compound at 1 μM.
In assay [12] the target is panel of more than 300 wild-type and mutant kinases (313 kinase panel) (Homo sapiens, UniProt O75676).

Sequence of panel of more than 300 wild-type and mutant kinases (313 kinase panel) (Homo sapiens, UniProt P22455, N535K) (P22455 22-802 N535K): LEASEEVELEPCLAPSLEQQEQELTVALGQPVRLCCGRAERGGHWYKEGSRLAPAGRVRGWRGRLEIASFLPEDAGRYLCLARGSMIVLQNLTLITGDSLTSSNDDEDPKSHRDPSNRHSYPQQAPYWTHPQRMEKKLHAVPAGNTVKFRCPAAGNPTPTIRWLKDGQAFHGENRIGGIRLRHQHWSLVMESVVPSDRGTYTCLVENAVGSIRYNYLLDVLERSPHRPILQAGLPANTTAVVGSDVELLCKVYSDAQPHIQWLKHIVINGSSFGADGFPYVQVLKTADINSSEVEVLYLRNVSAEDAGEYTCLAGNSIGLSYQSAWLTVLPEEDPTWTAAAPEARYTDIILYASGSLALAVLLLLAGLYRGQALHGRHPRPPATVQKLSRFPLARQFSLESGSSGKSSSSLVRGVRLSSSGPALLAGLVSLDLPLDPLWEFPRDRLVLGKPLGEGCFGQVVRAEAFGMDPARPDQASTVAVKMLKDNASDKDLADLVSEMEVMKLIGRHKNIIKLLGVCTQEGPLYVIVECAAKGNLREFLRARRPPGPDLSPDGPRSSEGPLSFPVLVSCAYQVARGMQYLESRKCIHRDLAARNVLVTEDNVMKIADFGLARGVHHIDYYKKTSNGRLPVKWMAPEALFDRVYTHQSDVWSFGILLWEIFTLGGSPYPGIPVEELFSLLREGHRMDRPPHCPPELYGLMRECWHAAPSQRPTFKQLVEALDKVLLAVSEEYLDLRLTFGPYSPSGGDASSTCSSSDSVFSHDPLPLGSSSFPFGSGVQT
Sequence of panel of more than 300 wild-type and mutant kinases (313 kinase panel) (Homo sapiens, UniProt Q07912) (Q07912 whole entry, change not shown): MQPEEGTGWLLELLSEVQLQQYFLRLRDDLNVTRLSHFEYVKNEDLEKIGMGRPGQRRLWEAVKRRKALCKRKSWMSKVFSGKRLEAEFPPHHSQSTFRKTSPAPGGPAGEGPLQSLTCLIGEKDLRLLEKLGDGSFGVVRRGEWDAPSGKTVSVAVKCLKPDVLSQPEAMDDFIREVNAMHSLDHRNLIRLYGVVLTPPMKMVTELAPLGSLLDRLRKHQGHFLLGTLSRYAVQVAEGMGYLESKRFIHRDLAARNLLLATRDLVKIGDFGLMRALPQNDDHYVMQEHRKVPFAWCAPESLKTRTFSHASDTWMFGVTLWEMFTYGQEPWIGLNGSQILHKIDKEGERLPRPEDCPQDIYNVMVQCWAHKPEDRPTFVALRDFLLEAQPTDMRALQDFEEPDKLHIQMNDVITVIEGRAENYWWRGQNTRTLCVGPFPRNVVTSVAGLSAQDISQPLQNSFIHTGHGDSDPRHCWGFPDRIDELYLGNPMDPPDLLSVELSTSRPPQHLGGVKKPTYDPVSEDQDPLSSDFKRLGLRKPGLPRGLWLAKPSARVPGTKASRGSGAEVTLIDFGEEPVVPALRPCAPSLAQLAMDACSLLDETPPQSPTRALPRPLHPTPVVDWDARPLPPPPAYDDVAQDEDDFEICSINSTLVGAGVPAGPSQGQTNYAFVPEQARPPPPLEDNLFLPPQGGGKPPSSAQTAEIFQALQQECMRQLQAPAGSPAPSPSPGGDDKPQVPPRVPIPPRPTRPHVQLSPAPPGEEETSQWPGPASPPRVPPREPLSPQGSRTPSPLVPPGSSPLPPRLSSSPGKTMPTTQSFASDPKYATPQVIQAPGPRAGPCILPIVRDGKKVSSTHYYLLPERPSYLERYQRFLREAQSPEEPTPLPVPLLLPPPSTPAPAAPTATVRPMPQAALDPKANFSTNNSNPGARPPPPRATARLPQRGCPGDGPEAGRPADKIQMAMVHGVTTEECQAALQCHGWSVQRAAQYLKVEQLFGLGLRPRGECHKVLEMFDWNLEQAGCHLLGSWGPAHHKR
Sequence of panel of more than 300 wild-type and mutant kinases (313 kinase panel) (Homo sapiens, UniProt Q13554) (Q13554 whole entry, change not shown): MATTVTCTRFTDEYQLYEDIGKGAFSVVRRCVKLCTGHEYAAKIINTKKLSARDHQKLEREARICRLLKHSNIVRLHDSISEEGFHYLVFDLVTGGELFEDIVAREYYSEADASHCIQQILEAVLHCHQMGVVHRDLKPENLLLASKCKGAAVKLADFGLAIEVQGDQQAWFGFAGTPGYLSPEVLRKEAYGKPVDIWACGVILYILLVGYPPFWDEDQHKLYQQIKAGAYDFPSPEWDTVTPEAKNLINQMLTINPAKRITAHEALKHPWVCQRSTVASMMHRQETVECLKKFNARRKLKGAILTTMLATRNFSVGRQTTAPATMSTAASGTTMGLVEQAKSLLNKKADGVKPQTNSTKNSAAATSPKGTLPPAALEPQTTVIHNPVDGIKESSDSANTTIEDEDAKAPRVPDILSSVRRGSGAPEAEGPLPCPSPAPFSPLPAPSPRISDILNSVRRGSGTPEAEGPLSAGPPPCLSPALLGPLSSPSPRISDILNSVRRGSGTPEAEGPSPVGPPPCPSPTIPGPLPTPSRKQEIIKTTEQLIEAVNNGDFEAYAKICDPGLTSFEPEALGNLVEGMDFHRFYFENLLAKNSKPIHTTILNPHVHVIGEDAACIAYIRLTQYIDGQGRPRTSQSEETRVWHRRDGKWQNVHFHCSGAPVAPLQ
Sequence of panel of more than 300 wild-type and mutant kinases (313 kinase panel) (Homo sapiens, UniProt P16591) (P16591 whole entry, change not shown): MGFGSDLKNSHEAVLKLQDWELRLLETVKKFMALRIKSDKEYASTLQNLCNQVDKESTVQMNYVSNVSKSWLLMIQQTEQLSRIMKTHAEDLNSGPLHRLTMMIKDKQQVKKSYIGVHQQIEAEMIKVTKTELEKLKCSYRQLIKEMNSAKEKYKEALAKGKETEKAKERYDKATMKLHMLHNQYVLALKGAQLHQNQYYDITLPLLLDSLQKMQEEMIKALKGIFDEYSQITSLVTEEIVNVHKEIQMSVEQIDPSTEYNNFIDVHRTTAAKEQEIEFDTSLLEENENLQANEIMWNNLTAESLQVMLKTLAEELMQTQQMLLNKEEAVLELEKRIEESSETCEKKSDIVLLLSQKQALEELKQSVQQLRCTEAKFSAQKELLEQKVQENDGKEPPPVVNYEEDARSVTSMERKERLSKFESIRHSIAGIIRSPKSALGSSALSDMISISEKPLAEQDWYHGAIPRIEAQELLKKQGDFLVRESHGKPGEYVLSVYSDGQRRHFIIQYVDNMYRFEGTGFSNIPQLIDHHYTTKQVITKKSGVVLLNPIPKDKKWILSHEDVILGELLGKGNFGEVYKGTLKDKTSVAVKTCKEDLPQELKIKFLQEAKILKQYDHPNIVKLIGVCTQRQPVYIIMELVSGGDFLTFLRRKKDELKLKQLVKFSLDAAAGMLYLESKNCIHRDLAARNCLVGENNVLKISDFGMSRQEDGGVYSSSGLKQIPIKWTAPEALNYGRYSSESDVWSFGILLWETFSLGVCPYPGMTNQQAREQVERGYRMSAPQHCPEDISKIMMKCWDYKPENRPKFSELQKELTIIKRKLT
Sequence of panel of more than 300 wild-type and mutant kinases (313 kinase panel) (Homo sapiens, UniProt P42685) (P42685 whole entry, change not shown): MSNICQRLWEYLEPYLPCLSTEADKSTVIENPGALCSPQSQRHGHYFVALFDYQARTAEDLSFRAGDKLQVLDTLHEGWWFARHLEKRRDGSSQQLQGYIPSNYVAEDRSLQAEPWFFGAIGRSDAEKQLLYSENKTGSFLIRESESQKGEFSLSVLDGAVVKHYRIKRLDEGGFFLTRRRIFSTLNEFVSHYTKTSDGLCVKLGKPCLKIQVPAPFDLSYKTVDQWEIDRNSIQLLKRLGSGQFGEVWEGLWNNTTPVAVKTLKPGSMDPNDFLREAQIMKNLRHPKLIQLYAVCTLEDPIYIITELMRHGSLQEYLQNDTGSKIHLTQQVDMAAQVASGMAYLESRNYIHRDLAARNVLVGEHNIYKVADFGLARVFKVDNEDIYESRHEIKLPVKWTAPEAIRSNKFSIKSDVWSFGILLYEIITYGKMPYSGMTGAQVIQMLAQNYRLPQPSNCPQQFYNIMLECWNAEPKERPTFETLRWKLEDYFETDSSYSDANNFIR

Take `CC(C)(C)c1nc(-c2cccc(NS(=O)(=O)c3c(F)cccc3F)c2F)c(-c2ccnc(N)n2)s1` [dabrafenib]: the “%-inhibition, ACK” value in [1] is 24%. For the same compound, the “%-inhibition, CLK2” value in assay [2] is 0.875%. The “%-inhibition of HIPK1” value in assay [3] turned out to be 70%. In addition, the “%-inhibition, CaMK4” value in [4] is recorded as 78%. Also, in assay [5], the “%-inhibition of FGFR4(N535K)” value is listed as 8%. For the same compound, the “%-inhibition of WNK2” value in assay [6] is given as 0.686%. Moreover, in [7] (kinase FMS, compound at 1 μM), the “%-inhibition of FMS” value was 15%. In assay [8], the “%-inhibition of PKD2” value was 82%. Also, the “%-inhibition of FER” value in assay [9] is listed as 22%. Further, in [10] (kinase CaMK2β, 1 μM compound), the “%-inhibition, CaMK2β” value is reported as -0.277%. In addition, the “%-inhibition of FRK” value in assay [11] stood at 81%.

Take `CO[C@H]1C[C@@H]2CC[C@@H](C)[C@@](O)(O2)C(=O)C(=O)N2CCCC[C@H]2C(=O)O[C@H]([C@H](C)C[C@@H]2CC[C@@H](OCCO)[C@H](OC)C2)CC(=O)[C@H](C)/C=C(\C)[C@@H](O)[C@@H](OC)C(=O)[C@H](C)C[C@H](C)/C=C/C=C/C=C/1C` [everolimus]: the “%-inhibition, ACK” value in assay [1] is given as -4.62%. Moreover, the “%-inhibition of MSK2” value in [12] (kinase MSK2, 1 μM) is on record as -7%. For the same compound, in [2], the “%-inhibition, CLK2” value is reported as -17%. In addition, in [3], the “%-inhibition of HIPK1” value was -6%. The “%-inhibition, CaMK4” value in assay [4] is on record as -11%. Moreover, the “%-inhibition of FGFR4(N535K)” value in assay [5] is 9%. In addition, in [6], the “%-inhibition of WNK2” value is -8%. Further, the “%-inhibition of FMS” value in assay [7] (kinase FMS, compound at 1 μM) is listed as -2.3%. Also, the “%-inhibition of PKD2” value in [8] is given as -17%. The “%-inhibition of FER” value in assay [9] is -0.138%. In [10] (kinase CaMK2β, 1 μM compound), the “%-inhibition, CaMK2β” value was -10%. In addition, the “%-inhibition of FRK” value in assay [11] came out at 1.26%.

As to `O=S(=O)(c1cccc2cnccc12)N1CCCNCC1` [fasudil], the “%-inhibition, ACK” value in [1] was 0.581%. Also, in assay [12] (kinase MSK2, 1 μM), the “%-inhibition of MSK2” value amounted to 15%. The “%-inhibition, CLK2” value in assay [2] is -0.292%. Moreover, in [3], the “%-inhibition of HIPK1” value is reported as -3.31%. For the same compound, in assay [4], the “%-inhibition, CaMK4” value is -5.66%. Further, the “%-inhibition of FGFR4(N535K)” value in assay [5] came out at 0.156%. Moreover, in assay [6], the “%-inhibition of WNK2” value stood at 1.45%. Also, the “%-inhibition of FMS” value in assay [7] (kinase FMS, compound at 1 μM) was -3%. Also, the “%-inhibition of PKD2” value in [8] was 24%. In addition, the “%-inhibition of FER” value in [9] is -3%. Moreover, in assay [10] (kinase CaMK2β, 1 μM compound), the “%-inhibition, CaMK2β” value is 2.58%. Also, in [11], the “%-inhibition of FRK” value is given as -3%.

Turning to `CNC(=O)c1cc(Oc2ccc(NC(=O)Nc3ccc(Cl)c(C(F)(F)F)c3)c(F)c2)ccn1` [regorafenib], the “%-inhibition, ACK” value in assay [1] is recorded as -3.35%. Also, the “%-inhibition of MSK2” value in assay [12] (kinase MSK2, 1 μM) is 2.43%. For the same compound, the “%-inhibition, CLK2” value in assay [2] was -24%. Moreover, the “%-inhibition of HIPK1” value in [3] was 47%. In addition, the “%-inhibition, CaMK4” value in assay [4] is -0.0486%. Also, the “%-inhibition of FGFR4(N535K)” value in assay [5] stood at 62%. In addition, in assay [6], the “%-inhibition of WNK2” value is -4.43%. Also, in [7] (kinase FMS, compound at 1 μM), the “%-inhibition of FMS” value amounted to 92%. Further, the “%-inhibition of PKD2” value in assay [8] is given as -18%. Also, in assay [9], the “%-inhibition of FER” value was -2%. Further, the “%-inhibition, CaMK2β” value in assay [10] (kinase CaMK2β, 1 μM compound) is -9%. Also, the “%-inhibition of FRK” value in assay [11] is 90%.

As for `N#CC[C@H](C1CCCC1)n1cc(-c2ncnc3[nH]ccc23)cn1` [ruxolitinib], the “%-inhibition, ACK” value in assay [1] is given as 93%. The “%-inhibition of MSK2” value in [12] (1 µM) was determined as 4.62%. In addition, in [2], the “%-inhibition, CLK2” value was 15%. Also, the “%-inhibition of HIPK1” value in assay [3] was found to be 3%. Besides, in assay [4], the “%-inhibition, CaMK4” value is on record as -2.58%. Moreover, the “%-inhibition of FGFR4(N535K)” value in [5] came to 4.48%. The “%-inhibition of WNK2” value in assay [6] is -4.57%. In assay [7] (1 µM), the “%-inhibition of FMS” value is on record as 68%. Besides, the “%-inhibition of PKD2” value in assay [8] was -6%. In addition, the “%-inhibition of FER” value in assay [9] is 33%. In assay [10] (1 µM), the “%-inhibition, CaMK2β” value came to 22%. Also, in [11], the “%-inhibition of FRK” value is 7%.

With `CO[C@H]1C[C@@H]2CC[C@@H](C)[C@@](O)(O2)C(=O)C(=O)N2CCCC[C@H]2C(=O)O[C@H]([C@H](C)C[C@@H]2CC[C@@H](OC(=O)C(C)(CO)CO)[C@H](OC)C2)CC(=O)[C@H](C)/C=C(\C)[C@@H](O)[C@@H](OC)C(=O)[C@H](C)C[C@H](C)/C=C/C=C/C=C/1C` [temsirolimus], the “%-inhibition, ACK” value in assay [1] is on record as -8%. In addition, the “%-inhibition of MSK2” value in assay [12] (kinase MSK2, 1 μM) is recorded as -5%. In assay [2], the “%-inhibition, CLK2” value is given as -4.4%. Besides, in assay [3], the “%-inhibition of HIPK1” value was -0.101%. The “%-inhibition, CaMK4” value in assay [4] is -9%. Further, in assay [5], the “%-inhibition of FGFR4(N535K)” value is given as 9%. Besides, the “%-inhibition of WNK2” value in assay [6] was -7%. Further, the “%-inhibition of FMS” value in assay [7] (kinase FMS, compound at 1 μM) is -1.41%. In assay [8], the “%-inhibition of PKD2” value was -16%. Also, in [9], the “%-inhibition of FER” value was -4%. Further, the “%-inhibition, CaMK2β” value in assay [10] (kinase CaMK2β, 1 μM compound) is on record as -9%. Moreover, the “%-inhibition of FRK” value in assay [11] is -11%.

`CC(=O)Nc1cccc(-n2c(=O)n(C3CC3)c(=O)c3c(Nc4ccc(I)cc4F)n(C)c(=O)c(C)c32)c1` [trametinib]: the “%-inhibition, ACK” value in [1] is on record as -5.39%. In addition, in assay [12] (kinase MSK2, 1 μM), the “%-inhibition of MSK2” value was -4.75%. Besides, the “%-inhibition, CLK2” value in [2] was -5%. Besides, in [3], the “%-inhibition of HIPK1” value is recorded as -3.71%. Also, the “%-inhibition, CaMK4” value in assay [4] was -5.45%. The “%-inhibition of FGFR4(N535K)” value in assay [5] is given as -5.47%. Moreover, the “%-inhibition of WNK2” value in assay [6] is 1.45%. For the same compound, the “%-inhibition of FMS” value in assay [7] (kinase FMS, compound at 1 μM) is on record as -4%. Also, the “%-inhibition of PKD2” value in assay [8] was -3.28%. In addition, the “%-inhibition of FER” value in [9] amounted to 4.28%. Also, the “%-inhibition, CaMK2β” value in assay [10] (kinase CaMK2β, 1 μM compound) came to 0.738%. Besides, the “%-inhibition of FRK” value in [11] is -3%.
